In PubChem BioAssay AID1918995 (Molecular Pharmacology Branch, DTP, NCI, 2023):
Values joined by “and” are separate entries in the source; they are usually repeats but may differ in a detail not shown here. Equal entries are not always repeated. Each block holds one molecule with its values, some of them ahead of it.

System: 324938-238-R-J1-PDC complex spheroid growth, % test/control
Assay: Anticancer human tumor 324938-238-R-J1-PDC patient-derived bladder carcinoma cell line growth inhibition [AhR]
Conditions: for viability, T/C: stronger effect = lower value
Summary of the method: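 Agents were dosed in half-log steps down from roughly clinical Cmax, or from 10 microM where Cmax was unknown, alone and with AhR antagonists. Read-out: percent test/control growth of tumor spheroids containing HUVEC and MSC stromal cells.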

[1] = curve of first compound, second compound 0.1 µM
[2] = curve of first compound, second compound 0.316 µM
[3] = curve of first compound, second compound 1 µM
[4] = curve of first compound, second compound 3.16 µM
[5] = curve of first compound, second compound 10 µM
[6] = second compound 0.1 µM, first compound 0.0316 µM
[7] = second compound 0.1 µM, first compound 0.1 µM
[8] = second compound 0.1 µM, first compound 0.316 µM
[9] = second compound 0.1 µM, first compound 1 µM
[10] = second compound 0.1 µM, first compound 3.16 µM
[11] = second compound 0.1 µM, first compound 10 µM
[12] = second compound 0.316 µM, first compound 0.0316 µM
[13] = second compound 0.316 µM, first compound 0.1 µM
[14] = second compound 0.316 µM, first compound 0.316 µM
[15] = second compound 0.316 µM, first compound 1 µM
[16] = second compound 0.316 µM, first compound 3.16 µM
[17] = second compound 0.316 µM, first compound 10 µM
[18] = second compound 1 µM, first compound 0.0316 µM
[19] = second compound 1 µM, first compound 0.1 µM
[20] = second compound 1 µM, first compound 0.316 µM
[21] = second compound 1 µM, first compound 1 µM
[22] = second compound 1 µM, first compound 3.16 µM
[23] = second compound 1 µM, first compound 10 µM
[24] = second compound 3.16 µM, first compound 0.0316 µM
[25] = second compound 3.16 µM, first compound 0.1 µM
[26] = second compound 3.16 µM, first compound 0.316 µM
[27] = second compound 3.16 µM, first compound 1 µM
[28] = second compound 3.16 µM, first compound 3.16 µM
[29] = second compound 3.16 µM, first compound 10 µM
[30] = second compound 10 µM, first compound 0.0316 µM
[31] = second compound 10 µM, first compound 0.1 µM
[32] = second compound 10 µM, first compound 0.316 µM
[33] = second compound 10 µM, first compound 1 µM
[34] = second compound 10 µM, first compound 3.16 µM
[35] = second compound 10 µM, first compound 10 µM
[36] = second compound 0.1 µM, first compound 0.00949 µM
[37] = second compound 0.1 µM, first compound 0.03 µM
[38] = second compound 0.1 µM, first compound 0.0949 µM
[39] = second compound 0.1 µM, first compound 0.3 µM
[40] = second compound 0.316 µM, first compound 0.00949 µM
[41] = second compound 0.316 µM, first compound 0.03 µM
[42] = second compound 0.316 µM, first compound 0.0949 µM
[43] = second compound 0.316 µM, first compound 0.3 µM
[44] = second compound 1 µM, first compound 0.00949 µM
[45] = second compound 1 µM, first compound 0.03 µM
[46] = second compound 1 µM, first compound 0.0949 µM
[47] = second compound 1 µM, first compound 0.3 µM
[48] = second compound 3.16 µM, first compound 0.00949 µM
[49] = second compound 3.16 µM, first compound 0.03 µM
[50] = second compound 3.16 µM, first compound 0.0949 µM
[51] = second compound 3.16 µM, first compound 0.3 µM
[52] = second compound 10 µM, first compound 0.00949 µM
[53] = second compound 10 µM, first compound 0.03 µM
[54] = second compound 10 µM, first compound 0.0949 µM
[55] = second compound 10 µM, first compound 0.3 µM
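Further: spheroids exposed to agents for seven days before viability read.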

IC50 (curve of compound): > 300 nM and 215 nM
Structure (SMILES): Nc1ncn(C2CC(O)C(CO)S2)c(=O)n1 (configuration not stated)
viability, T/C (compound 0.000949 µM): 106% and 103% and 93.4%
viability, T/C (compound 0.003 µM): 86.6% and 105% and 95.5%
viability, T/C (compound 0.00949 µM): 86.8% and 106% and 94.1%
viability, T/C (compound 0.03 µM): 116% and 92.5% and 88.8%
viability, T/C (compound 0.0949 µM): 96.4% and 71.2% and 66.3%
viability, T/C (compound 0.3 µM): 138% and 60.1% and 43.4%

IC50 (curve of compound): 681 nM and 184 nM and 92.1 nM
Structure (SMILES): O=C(C=Cn1cnc(-c2cc(C(F)(F)F)cc(C(F)(F)F)c2)n1)NNc1cnccn1
viability, T/C (compound 0.00949 µM): 129% and 95.9% and 85.8%
viability, T/C (compound 0.03 µM): 100% and 95.8% and 75.1%
viability, T/C (compound 0.0949 µM): 71.5% and 69.7% and 47.7%
viability, T/C (compound 0.3 µM): 58.5% and 34.4% and 27%
viability, T/C (compound 0.949 µM): 45.4% and 16.9% and 15.9%

IC50 [1]: 9560 nM
IC50 [2]: > 10000 nM
IC50 [3]: > 10000 nM
IC50 [4]: 6860 nM
IC50 [5]: 5140 nM
Structure (SMILES): O=C(c1cc(Cc2n[nH]c(=O)c3ccccc23)ccc1F)N1CCN(C(=O)C2CC2)CC1 + CC(CO)NC(=O)c1cc(-c2ccc(Cl)cc2)nn(-c2cnn(C)c2)c1=O
viability, T/C [6]: 97.6%
viability, T/C [7]: 104%
viability, T/C [8]: 85.3%
viability, T/C [9]: 75.6%
viability, T/C [10]: 66.9%
viability, T/C [11]: 48.6%
viability, T/C [12]: 83.3%
viability, T/C [13]: 81%
viability, T/C [14]: 79.2%
viability, T/C [15]: 69.8%
viability, T/C [16]: 65.3%
viability, T/C [17]: 52%
viability, T/C [18]: 82%
viability, T/C [19]: 77.1%
viability, T/C [20]: 75.1%
viability, T/C [21]: 70.6%
viability, T/C [22]: 65.7%
viability, T/C [23]: 54%
viability, T/C [24]: 65.8%
viability, T/C [25]: 69.8%
viability, T/C [26]: 73.7%
viability, T/C [27]: 57.8%
viability, T/C [28]: 53.9%
viability, T/C [29]: 48.4%
viability, T/C [30]: 58.8%
viability, T/C [31]: 63.8%
viability, T/C [32]: 55.5%
viability, T/C [33]: 50.5%
viability, T/C [34]: 54.1%
viability, T/C [35]: 47.5%

IC50 (curve of compound): > 10000 nM
Structure (SMILES): CC1(C)CCC(CN2CCN(c3ccc(C(=O)NS(=O)(=O)c4ccc(NCC5CCOCC5)c([N+](=O)[O-])c4)c(Oc4cnc5[nH]ccc5c4)c3)CC2)=C(c2ccc(Cl)cc2)C1
viability, T/C (compound 0.0316 µM): 87.5% and 102% and 105%
viability, T/C (compound 0.1 µM): 125% and 98.4% and 101%
viability, T/C (compound 0.316 µM): 93.4% and 103% and 109%
viability, T/C (compound 1 µM): 82.8% and 94.3% and 101%
viability, T/C (compound 3.16 µM): 104% and 90.7% and 87.7%
viability, T/C (compound 10 µM): 114% and 59.1% and 52.6%

IC50 [1]: > 10000 nM
IC50 [2]: > 10000 nM
IC50 [3]: > 10000 nM
IC50 [4]: > 10000 nM
IC50 [5]: > 10000 nM
Structure (SMILES): O=C(c1cc(Cc2n[nH]c(=O)c3ccccc23)ccc1F)N1CCN(C(=O)C2CC2)CC1 + Cc1ccccc1N=Nc1ccc(NC(=O)c2ccnn2C)c(C)c1
viability, T/C [6]: 98%
viability, T/C [7]: 105%
viability, T/C [8]: 101%
viability, T/C [9]: 103%
viability, T/C [10]: 87.6%
viability, T/C [11]: 75.5%
viability, T/C [12]: 99.4%
viability, T/C [13]: 99.8%
viability, T/C [14]: 91.7%
viability, T/C [15]: 92.1%
viability, T/C [16]: 89.8%
viability, T/C [17]: 68.5%
viability, T/C [18]: 94.4%
viability, T/C [19]: 100%
viability, T/C [20]: 95.5%
viability, T/C [21]: 90.6%
viability, T/C [22]: 78.7%
viability, T/C [23]: 72.3%
viability, T/C [24]: 84.5%
viability, T/C [25]: 79%
viability, T/C [26]: 87.3%
viability, T/C [27]: 84.5%
viability, T/C [28]: 74.4%
viability, T/C [29]: 65.2%
viability, T/C [30]: 84.6%
viability, T/C [31]: 83.4%
viability, T/C [32]: 81.2%
viability, T/C [33]: 85.1%
viability, T/C [34]: 72.4%
viability, T/C [35]: 65.9%

IC50 (curve of compound): 1860 nM and 1750 nM and 616 nM
Structure (SMILES): NS(=O)(=O)OCC1CC(n2ccc3c(NC4CCc5ccccc54)ncnc32)CC1O (configuration not stated)
viability, T/C (compound 0.0316 µM): 120% and 104% and 97.8%
viability, T/C (compound 0.1 µM): 79.3% and 98% and 80.5%
viability, T/C (compound 0.316 µM): 97.1% and 99.1% and 65.3%
viability, T/C (compound 1 µM): 64.7% and 67.5% and 40.5%
viability, T/C (compound 3.16 µM): 30.8% and 30.9% and 26.9%
viability, T/C (compound 10 µM): 25.3% and 31.1% and 29.9%

IC50 [1]: 5.19 nM
IC50 [2]: 4.9 nM
IC50 [3]: 4.83 nM
IC50 [4]: 4.38 nM
IC50 [5]: 4.51 nM
Structure (SMILES): CC(C)CC(NC(=O)C(Cc1ccccc1)NC(=O)c1cnccn1)B(O)O (configuration not stated) + Cc1ccccc1N=Nc1ccc(NC(=O)c2ccnn2C)c(C)c1
viability, T/C (second compound 0.1 µM, first compound 0.000949 µM): 97.5%
viability, T/C (second compound 0.1 µM, first compound 0.003 µM): 94.3%
viability, T/C [36]: 1.29%
viability, T/C [37]: 0.07%
viability, T/C [38]: 0.09%
viability, T/C [39]: 0.27%
viability, T/C (second compound 0.316 µM, first compound 0.000949 µM): 92.3%
viability, T/C (second compound 0.316 µM, first compound 0.003 µM): 84.6%
viability, T/C [40]: 3.23%
viability, T/C [41]: 0.04%
viability, T/C [42]: 0.05%
viability, T/C [43]: 0.19%
viability, T/C (second compound 1 µM, first compound 0.000949 µM): 95.1%
viability, T/C (second compound 1 µM, first compound 0.003 µM): 84.1%
viability, T/C [44]: 1.49%
viability, T/C [45]: 0.04%
viability, T/C [46]: 0.07%
viability, T/C [47]: 0.17%
viability, T/C (second compound 3.16 µM, first compound 0.000949 µM): 84.2%
viability, T/C (second compound 3.16 µM, first compound 0.003 µM): 73.4%
viability, T/C [48]: 2.32%
viability, T/C [49]: 0.06%
viability, T/C [50]: 0.06%
viability, T/C [51]: 0.19%
viability, T/C (second compound 10 µM, first compound 0.000949 µM): 85.9%
viability, T/C (second compound 10 µM, first compound 0.003 µM): 76.1%
viability, T/C [52]: 2.47%
viability, T/C [53]: 0.24%
viability, T/C [54]: 0.36%
viability, T/C [55]: 0.32%

IC50 [1]: 173 nM
IC50 [2]: 171 nM
IC50 [3]: 178 nM
IC50 [4]: 144 nM
IC50 [5]: 172 nM
Structure (SMILES): O=C(C=Cn1cnc(-c2cc(C(F)(F)F)cc(C(F)(F)F)c2)n1)NNc1cnccn1 + Cc1ccccc1N=Nc1ccc(NC(=O)c2ccnn2C)c(C)c1
viability, T/C [36]: 91.4%
viability, T/C [37]: 95.5%
viability, T/C [38]: 62.7%
viability, T/C [39]: 35.8%
viability, T/C (second compound 0.1 µM, first compound 0.949 µM): 19.1%
viability, T/C (second compound 0.1 µM, first compound 3 µM): 8.4%
viability, T/C [40]: 90.4%
viability, T/C [41]: 90.6%
viability, T/C [42]: 67.8%
viability, T/C [43]: 32.1%
viability, T/C (second compound 0.316 µM, first compound 0.949 µM): 19.9%
viability, T/C (second compound 0.316 µM, first compound 3 µM): 11.9%
viability, T/C [44]: 86.4%
viability, T/C [45]: 79.8%
viability, T/C [46]: 65.6%
viability, T/C [47]: 37.1%
viability, T/C (second compound 1 µM, first compound 0.949 µM): 18.6%
viability, T/C (second compound 1 µM, first compound 3 µM): 10.7%
viability, T/C [48]: 84.7%
viability, T/C [49]: 72%
viability, T/C [50]: 58.2%
viability, T/C [51]: 37.5%
viability, T/C (second compound 3.16 µM, first compound 0.949 µM): 23.4%
viability, T/C (second compound 3.16 µM, first compound 3 µM): 16.3%
viability, T/C [52]: 78.4%
viability, T/C [53]: 78.7%
viability, T/C [54]: 62.5%
viability, T/C [55]: 37.2%
viability, T/C (second compound 10 µM, first compound 0.949 µM): 26.7%
viability, T/C (second compound 10 µM, first compound 3 µM): 18.6%
